Experimental data: paper PMC5218480 (PLoS ONE, 2017)

Tested on: MV-4-11 cells
Experiment: Gene expression microarray analysis (Affymetrix PrimeView) and GSEA
Type: cell-based, human
Parameters: RFU PODN (11730768_x_at) / Fold change /veh PODN (11730768_x_at) / RFU LINC00158 (11744669_a_at) / Fold change /veh LINC00158 (11744669_a_at) / RFU DUSP10 (11751237_a_at) / Fold change /veh DUSP10 (11751237_a_at) / RFU ID3 (11757404_x_at) / Fold change /veh ID3 (11757404_x_at) / RFU PLEKHG5 (11737974_s_at) / Fold change /veh PLEKHG5 (11737974_s_at) / RFU LRRC4B (11730491_at) / Fold change /veh LRRC4B (11730491_at) / RFU GIMAP4 (11747438_a_at) / Fold change /veh GIMAP4 (11747438_a_at) / RFU KRT8 (11758183_x_at) / Fold change /veh KRT8 (11758183_x_at) / RFU CNN1 (11734310_a_at) / Fold change /veh CNN1 (11734310_a_at) / RFU VPS37D (11726825_at) / Fold change /veh VPS37D (11726825_at) / RFU C10orf10 (11716522_x_at) / Fold change /veh C10orf10 (11716522_x_at) / RFU KIR2DL2 /// KIR2DL4 /// KIR2DL5A /// KIR2DL5B /// KIR2DS1 /// KIR2DS2 /// KIR2DS3 /// KIR2DS4 /// KIR3DL3 /// KIR3DL3 /// KIR3DS1 (11738374_at) / Fold change /veh KIR2DL2 /// KIR2DL4 /// KIR2DL5A /// KIR2DL5B /// KIR2DS1 /// KIR2DS2 /// KIR2DS3 /// KIR2DS4 /// KIR3DL3 /// KIR3DL3 /// KIR3DS1 (11738374_at) / RFU C1QL1 (11718748_at) / Fold change /veh C1QL1 (11718748_at) / RFU TMPRSS4 (11747572_a_at) / Fold change /veh TMPRSS4 (11747572_a_at) / RFU HAMP (11756126_x_at) / Fold change /veh HAMP (11756126_x_at) / RFU RNFT2 (11725882_a_at) / Fold change /veh RNFT2 (11725882_a_at) / RFU NR4A2 (11747474_a_at) / Fold change /veh NR4A2 (11747474_a_at) / RFU ABCC12 (11746883_a_at) / Fold change /veh ABCC12 (11746883_a_at) / RFU TMEM136 (11760407_x_at) / Fold change /veh TMEM136 (11760407_x_at) / RFU CLDN22 /// WWC2 (11732394_at) / Fold change /veh CLDN22 /// WWC2 (11732394_at) / RFU HLA-DPB1 (11760878_x_at) / Fold change /veh HLA-DPB1 (11760878_x_at) / RFU SPINT1 (11716480_a_at) / Fold change /veh SPINT1 (11716480_a_at) / RFU GAP43 (11754022_s_at) / Fold change /veh GAP43 (11754022_s_at) / RFU A4GNT (11735810_at) / Fold change /veh A4GNT (11735810_at) / RFU PRB3 (11715151_x_at) / Fold change /veh PRB3 (11715151_x_at) / RFU TUBB4B (11761932_at) / Fold change /veh TUBB4B (11761932_at) / RFU CAPN14 (11732068_a_at) / Fold change /veh CAPN14 (11732068_a_at) / RFU TMCC2 (11721928_a_at) / Fold change /veh TMCC2 (11721928_a_at) / RFU IRGQ (11745062_a_at) / Fold change /veh IRGQ (11745062_a_at) / RFU FAM174B (11720279_a_at) / Fold change /veh FAM174B (11720279_a_at) / RFU TMPRSS4 (11748680_a_at) / Fold change /veh TMPRSS4 (11748680_a_at) / RFU FAM212B (11763350_a_at) / Fold change /veh FAM212B (11763350_a_at) / RFU PLEKHG5 (11743358_a_at) / Fold change /veh PLEKHG5 (11743358_a_at) / RFU ZSCAN30 (11745921_a_at) / Fold change /veh ZSCAN30 (11745921_a_at) / RFU CMKLR1 (11741424_a_at) / Fold change /veh CMKLR1 (11741424_a_at) / RFU LOC101060620 /// MAPK8IP1 (11723275_at) / Fold change /veh LOC101060620 /// MAPK8IP1 (11723275_at) / RFU SPTSSB (11747773_x_at) / Fold change /veh SPTSSB (11747773_x_at) / RFU PRSS12 (11739890_at) / Fold change /veh PRSS12 (11739890_at) / RFU BIN1 (11741810_x_at) / Fold change /veh BIN1 (11741810_x_at) / RFU WNT11 (11732464_a_at) / Fold change /veh WNT11 (11732464_a_at) / RFU C10orf10 (11716521_a_at) / Fold change /veh C10orf10 (11716521_a_at) / RFU C5orf56 (11738089_at) / Fold change /veh C5orf56 (11738089_at) / RFU CYB561 (11721691_x_at) / Fold change /veh CYB561 (11721691_x_at) / RFU ANKRD19P (11752326_a_at) / Fold change /veh ANKRD19P (11752326_a_at) / RFU OR2T12 /// OR2T33 /// OR2T8 (11738714_s_at) / Fold change /veh OR2T12 /// OR2T33 /// OR2T8 (11738714_s_at) / RFU VCAN (11748164_a_at) / Fold change /veh VCAN (11748164_a_at) / RFU JSRP1 (11732532_at) / Fold change /veh JSRP1 (11732532_at) / RFU KRTAP10-11 (11738290_x_at) / Fold change /veh KRTAP10-11 (11738290_x_at) / RFU MYO3A (11730013_a_at) / Fold change /veh MYO3A (11730013_a_at) / RFU EBF3 (11725865_a_at) / Fold change /veh EBF3 (11725865_a_at) / RFU CAMK2N1 (11719241_x_at) / Fold change /veh CAMK2N1 (11719241_x_at) / RFU C5orf56 (11738088_a_at) / Fold change /veh C5orf56 (11738088_a_at) / RFU OLFML3 (11715873_a_at) / Fold change /veh OLFML3 (11715873_a_at) / RFU LOC100653217 /// NTM (11731650_a_at) / Fold change /veh LOC100653217 /// NTM (11731650_a_at) / RFU MAPK11 (11762145_a_at) / Fold change /veh MAPK11 (11762145_a_at) / RFU FIZ1 (11724087_x_at) / Fold change /veh FIZ1 (11724087_x_at) / RFU OASL (11726364_x_at) / Fold change /veh OASL (11726364_x_at) / RFU SOX15 (11748057_x_at) / Fold change /veh SOX15 (11748057_x_at) / RFU CD79A (11719716_a_at) / Fold change /veh CD79A (11719716_a_at) / RFU HIST1H1D (11736915_at) / Fold change /veh HIST1H1D (11736915_at) / RFU CASKIN2 (11723855_a_at) / Fold change /veh CASKIN2 (11723855_a_at) / RFU LOC730098 (11760151_x_at) / Fold change /veh LOC730098 (11760151_x_at) / RFU OR4N2 (11742367_at) / Fold change /veh OR4N2 (11742367_at) / RFU PRRT2 (11749266_a_at) / Fold change /veh PRRT2 (11749266_a_at) / RFU SNX32 (11753110_a_at) / Fold change /veh SNX32 (11753110_a_at) / RFU CDHR5 (11726645_a_at) / Fold change /veh CDHR5 (11726645_a_at) / RFU RCAN1 (11760418_a_at) / Fold change /veh RCAN1 (11760418_a_at) / RFU FAM167A (11723789_a_at) / Fold change /veh FAM167A (11723789_a_at) / RFU FAM26E (11764081_at) / Fold change /veh FAM26E (11764081_at) / RFU ISYNA1 (11749810_s_at) / Fold change /veh ISYNA1 (11749810_s_at) / RFU ACY1 (11761880_at) / Fold change /veh ACY1 (11761880_at) / RFU 11764098_at / Fold change /veh 11764098_at / RFU SAMD14 (11745864_x_at) / Fold change /veh SAMD14 (11745864_x_at) / RFU NPB (11741838_a_at) / Fold change /veh NPB (11741838_a_at) / RFU TMPRSS6 (11731388_a_at) / Fold change /veh TMPRSS6 (11731388_a_at) / RFU KRTAP10-2 (11738614_at) / Fold change /veh KRTAP10-2 (11738614_at) / RFU ARHGAP8 /// PRR5-ARHGAP8 (11727945_x_at) / Fold change /veh ARHGAP8 /// PRR5-ARHGAP8 (11727945_x_at) / RFU KRTAP5-7 /// NADSYN1 (11734609_at) / Fold change /veh KRTAP5-7 /// NADSYN1 (11734609_at) / RFU RASL12 (11751679_a_at) / Fold change /veh RASL12 (11751679_a_at) / RFU CDKN2B (11736163_a_at) / Fold change /veh CDKN2B (11736163_a_at) / RFU PRF1 (11729649_at) / Fold change /veh PRF1 (11729649_at) / RFU, ZNF638 /// ZNF638-IT1 / Fold change vs veh, ZNF638 /// ZNF638-IT1 / RFU, PANK3 / Fold change vs veh, PANK3 / RFU, SH3YL1 / Fold change vs veh, SH3YL1 / RFU, ZEB2 / Fold change vs veh, ZEB2 / RFU, NRIP1 / Fold change vs veh, NRIP1 / RFU, PTTG1IP / Fold change vs veh, PTTG1IP / RFU, CAPN2 / Fold change vs veh, CAPN2 / RFU, MED14 / Fold change vs veh, MED14 / RFU, SNORA58 / Fold change vs veh, SNORA58 / RFU, C1orf63 / Fold change vs veh, C1orf63 / RFU, LRRFIP1 / Fold change vs veh, LRRFIP1 / RFU, NDUFAF7 / Fold change vs veh, NDUFAF7 / RFU, SLC12A2 / Fold change vs veh, SLC12A2 / RFU, IBTK / Fold change vs veh, IBTK / RFU, ESF1 / Fold change vs veh, ESF1 / Fold change vs veh, TMEM50B / RFU, TAOK1 / Fold change vs veh, TAOK1 / RFU, ACBD3 / Fold change vs veh, ACBD3 / RFU, TMA16 / Fold change vs veh, TMA16 / RFU, RWDD3 / Fold change vs veh, RWDD3 / RFU, BCAT1 / Fold change vs veh, BCAT1 / RFU, EDEM3 / Fold change vs veh, EDEM3 / RFU, TMEM33 / Fold change vs veh, TMEM33 / RFU, WDR75 / Fold change vs veh, WDR75 / RFU, AHCTF1 / Fold change vs veh, AHCTF1 / RFU, TFRC / Fold change vs veh, TFRC / RFU, ZDHHC17 / Fold change vs veh, ZDHHC17 / RFU, NOM1 / Fold change vs veh, NOM1 / RFU, ARL8B / Fold change vs veh, ARL8B / RFU, ZBTB11 / Fold change vs veh, ZBTB11 / RFU, TAMM41 / Fold change vs veh, TAMM41 / RFU, KIAA1704 /// LOC100996395 / Fold change vs veh, KIAA1704 /// LOC100996395 / RFU, ING1 / Fold change vs veh, ING1 / RFU, TRMT61B / Fold change vs veh, TRMT61B / RFU, FUBP3 / Fold change vs veh, FUBP3 / RFU, TP53 / Fold change vs veh, TP53 / RFU, TNKS2 / Fold change vs veh, TNKS2 / RFU, ZFP14 / Fold change vs veh, ZFP14 / RFU, ACTR2 / Fold change vs veh, ACTR2 / RFU, PPP3R1 / Fold change vs veh, PPP3R1 / RFU, PIK3R1 / Fold change vs veh, PIK3R1 / RFU, HNRNPA1 / Fold change vs veh, HNRNPA1 / RFU, RNF170 / Fold change vs veh, RNF170 / RFU, ZNF28 / Fold change vs veh, ZNF28 / RFU, RNGTT / Fold change vs veh, RNGTT / RFU, OGT / Fold change vs veh, OGT / RFU, BRD1 / Fold change vs veh, BRD1 / RFU, MARS / Fold change vs veh, MARS / RFU, ZNF655 / Fold change vs veh, ZNF655 / RFU, FAHD1 / Fold change vs veh, FAHD1 / RFU, BDP1 / Fold change vs veh, BDP1 / RFU, LRRCC1 / Fold change vs veh, LRRCC1 / RFU, ARID1A / Fold change vs veh, ARID1A / RFU, ZNF146 / Fold change vs veh, ZNF146 / RFU, ZNF330 / Fold change vs veh, ZNF330 / RFU, GPN3 / Fold change vs veh, GPN3 / RFU, C9orf123 / Fold change vs veh, C9orf123 / RFU, N4BP2L2 / Fold change vs veh, N4BP2L2 / RFU, ARFIP1 / Fold change vs veh, ARFIP1 / RFU, FAM179B / Fold change vs veh, FAM179B / RFU, BCL10 / Fold change vs veh, BCL10 / RFU, UHRF1BP1L / Fold change vs veh, UHRF1BP1L / RFU, BET1 / Fold change vs veh, BET1 / RFU, CNOT2 / Fold change vs veh, CNOT2 / RFU, ZNF268 / Fold change vs veh, ZNF268 / Fold change vs veh, ZNF507 / RFU, DGCR2 / Fold change vs veh, DGCR2 / RFU, WDSUB1 / Fold change vs veh, WDSUB1 / Fold change vs veh, HSP90B1 /// MIR3652 / RFU, ADSS / Fold change vs veh, ADSS / RFU, GK / Fold change vs veh, GK / RFU, ZNF148 / Fold change vs veh, ZNF148 / RFU, TAF9 / Fold change vs veh, TAF9 / RFU, SLC1A5 / Fold change vs veh, SLC1A5 / RFU, SLMO2 / Fold change vs veh, SLMO2 / RFU, ABCC4 / Fold change vs veh, ABCC4 / RFU, LOC101060439 /// RAP1B / Fold change vs veh, LOC101060439 /// RAP1B / RFU, RFX7 / Fold change vs veh, RFX7 / RFU, GTPBP10 / Fold change vs veh, GTPBP10 / RFU, CNEP1R1 / Fold change vs veh, CNEP1R1 / RFU, BIVM-ERCC5 /// ERCC5 / Fold change vs veh, BIVM-ERCC5 /// ERCC5 / RFU, ILF3 / Fold change vs veh, ILF3 / RFU 11762660_at / Fold change /veh 11762660_at / RFU VCAN (11757783_s_at) / Fold change /veh VCAN (11757783_s_at) / RFU DDX43 (11728927_at) / Fold change /veh DDX43 (11728927_at) / RFU KRT8 (11758188_x_at) / Fold change /veh KRT8 (11758188_x_at) / RFU NKD1 (11759106_at) / Fold change /veh NKD1 (11759106_at) / RFU SRD5A1 (11742802_a_at) / Fold change /veh SRD5A1 (11742802_a_at) / RFU TPSAB1 /// TPSB2 (11721975_s_at) / Fold change /veh TPSAB1 /// TPSB2 (11721975_s_at) / RFU GSTM3 (11746129_a_at) / Fold change /veh GSTM3 (11746129_a_at) / RFU IL23R (11737362_x_at) / Fold change /veh IL23R (11737362_x_at) / RFU TMEM51 (11727254_a_at) / Fold change /veh TMEM51 (11727254_a_at) / RFU PIWIL2 (11732686_x_at) / Fold change /veh PIWIL2 (11732686_x_at) / RFU ORM1 (11744905_x_at) / Fold change /veh ORM1 (11744905_x_at) / RFU CCDC152 (11743942_at) / Fold change /veh CCDC152 (11743942_at) / RFU ECM1 (11717891_a_at) / Fold change /veh ECM1 (11717891_a_at) / RFU IL23R (11748794_a_at) / Fold change /veh IL23R (11748794_a_at) / RFU TNFAIP8L3 (11732012_x_at) / Fold change /veh TNFAIP8L3 (11732012_x_at) / RFU MBOAT4 (11741988_at) / Fold change /veh MBOAT4 (11741988_at) / RFU 11764193_at / Fold change /veh 11764193_at / RFU TMEM53 (11763286_at) / Fold change /veh TMEM53 (11763286_at) / RFU MAGEB2 (11727129_at) / Fold change /veh MAGEB2 (11727129_at) / RFU TMEM200A (11744735_a_at) / Fold change /veh TMEM200A (11744735_a_at) / RFU CCDC152 (11751479_a_at) / Fold change /veh CCDC152 (11751479_a_at) / RFU FAM211A (11726209_a_at) / Fold change /veh FAM211A (11726209_a_at) / RFU RGS16 (11746705_a_at) / Fold change /veh RGS16 (11746705_a_at) / RFU VCAN (11755009_s_at) / Fold change /veh VCAN (11755009_s_at) / RFU RHOB (11743442_s_at) / Fold change /veh RHOB (11743442_s_at) / RFU RGS16 (11720943_a_at) / Fold change /veh RGS16 (11720943_a_at) / RFU RGS16 (11720944_at) / Fold change /veh RGS16 (11720944_at) / RFU, VPS4B / Fold change vs veh, VPS4B / RFU, CREB1 / Fold change vs veh, CREB1 / RFU, DNAJC13 / Fold change vs veh, DNAJC13 / RFU, GNAQ / Fold change vs veh, GNAQ / RFU, CDK5R1 / Fold change vs veh, CDK5R1 / RFU, ZRANB3 / Fold change vs veh, ZRANB3 / RFU, CUL4A / Fold change vs veh, CUL4A / RFU, CCNY / Fold change vs veh, CCNY / RFU, UFL1 / Fold change vs veh, UFL1 / RFU, COG3 / Fold change vs veh, COG3 / RFU, DIAPH2 / Fold change vs veh, DIAPH2 / RFU, SKA2 / Fold change vs veh, SKA2 / RFU, AFF3 / Fold change vs veh, AFF3 / RFU, LMF1 / Fold change vs veh, LMF1 / RFU, IPO11 / Fold change vs veh, IPO11 / RFU, DFFB / Fold change vs veh, DFFB / RFU, FOXP1 / Fold change vs veh, FOXP1 / RFU, CARD8 / Fold change vs veh, CARD8 / RFU, STRN3 / Fold change vs veh, STRN3 / RFU, ADK / Fold change vs veh, ADK / RFU, RASSF2 / Fold change vs veh, RASSF2 / RFU, WIPF1 / Fold change vs veh, WIPF1 / RFU, LARP1B / Fold change vs veh, LARP1B / RFU, RASA1 / Fold change vs veh, RASA1 / RFU, RB1 / Fold change vs veh, RB1 / RFU, PPFIA1 / Fold change vs veh, PPFIA1 / RFU, MAT2A / Fold change vs veh, MAT2A / RFU, CCT5 / Fold change vs veh, CCT5 / RFU, WDR92 / Fold change vs veh, WDR92 / RFU, CUX1 / Fold change vs veh, CUX1 / RFU, TTC7A / Fold change vs veh, TTC7A / RFU, TMEM135 / Fold change vs veh, TMEM135 / RFU, DEPTOR / Fold change vs veh, DEPTOR / RFU, CPM / Fold change vs veh, CPM / RFU, DNAJB6 / Fold change vs veh, DNAJB6 / RFU, CACNA2D3 / Fold change vs veh, CACNA2D3 / RFU, DTX4 / Fold change vs veh, DTX4 / RFU, TFCP2 / Fold change vs veh, TFCP2 / RFU, GMCL1 /// GMCL1P1 / Fold change vs veh, GMCL1 /// GMCL1P1 / RFU, AEBP2 / Fold change vs veh, AEBP2 / RFU, SNHG1 /// SNORD22 /// SNORD25 /// SNORD26 /// SNORD27 /// SNORD28 /// SNORD29 /// SNORD31 / Fold change vs veh, SNHG1 /// SNORD22 /// SNORD25 /// SNORD26 /// SNORD27 /// SNORD28 /// SNORD29 /// SNORD31 / Fold change (Aza/veh), C12orf56 (ProbeSet 11735607_a_at) / Fold change (ACY-1035/veh), C12orf56 (ProbeSet 11735607_a_at) / Fold change (Aza/veh), FGFR1OP (ProbeSet 11751329_s_at) / Fold change (ACY-1035/veh), FGFR1OP (ProbeSet 11751329_s_at) / Fold change (Aza/veh), VPS36 (ProbeSet 11739960_a_at) / Fold change (ACY-1035/veh), VPS36 (ProbeSet 11739960_a_at) / RFU SYPL1 (11715823_x_at) / Fold change /veh SYPL1 (11715823_x_at) / RFU IGFBP7 (11715501_s_at) / Fold change /veh IGFBP7 (11715501_s_at) / RFU REEP3 (11722064_at) / Fold change /veh REEP3 (11722064_at) / RFU IGLL1 (11728026_x_at) / Fold change /veh IGLL1 (11728026_x_at): dose or concentration left out as unconfirmed
Settings: ProbeSet 11728271_at; LIST B

## Nc1ccc(-c2cccs2)cc1NC(=O)c1ccc2c(c1)cc(C1CC1)n2CCN1CCOCC1 [ACY-1035]
  RFU, ZNF330: 663.85 RFU
